Publication PMC7023064, “Design, Synthesis, and Evaluation of Novel 2-Methoxyestradiol Derivatives as Apoptotic Inducers through an Intrinsic Apoptosis Pathway” (Biomolecules, 2020)

Legend:
[1] = test system: human breast cancer MDA-MB-231 cell lines; test: MTT cytotoxicity assay, MDA-MB-231; format: cell-based; settings: mean ± SD of three experiments
Procedure: Human breast adenocarcinoma MCF-7 cell lines, human breast cancer MDA-MB-231 cell lines, and the normal human liver L-O2 cell lines were provided by Nanjing KeyGen Biotech Co. Ltd. (Nanjing, China). MCF-7 cells were cultured in a base medium (90% RPMI-1640 and 10% FBS) at 37 °C, 5% CO2 and a saturated humidity atmosphere. MDA-MB-231 cells were cultured in a base medium (90% […] and 10% FBS) at 37 °C, 5% CO2 and a saturated humidity atmosphere. L-O2 cells were cultured in a base medium (90% DMEM and 10% FBS) at 37 °C, 5% CO2 and a saturated humidity atmosphere.
The cytotoxicity of the tested compounds was determined using the 3-(4,5-dimethyl-2-thiazolyl)-2,5-diphenyl-2-H-tetrazolium bromide (MTT) assay. Cells were seeded in 96-well plates and incubated in a 5% CO2 incubator at 37 °C. When the cells adhered, compounds at different concentrations were added to every well. After incubation for another 72 h, MTT solution (5 mg/mL) was added into each well and cells were incubated for an additional 4 h. The viable cells were stained with MTT and scanned with an electrophotometer at 570 nm. Each concentration treatment was done in triplicate wells. The half maximal inhibitory concentration (IC50) values were estimated by fitting the inhibition data to a dose-dependent curve using a logistic derivative equation.

[2] = test system: MCF-7 breast cancer cells; test: Real-time polymerase chain reaction of apoptosis genes; format: cell-based, human; settings: 5, 10, and 20 μM, GAPDH as control
Procedure: RNA was isolated using Trizol Reagent (Invitrogen, Carlsbad, California, USA). cDNA was made via the manufacturer’s instructions with the first chain of a cDNA synthesizing kit (Fermentas, Lithuania). Real-time polymerase chain reaction (RT-PCR) was performed on a Da An Gene DA7600 Real Time machine using Da An Gene incorporation (ZhongShan, China). The 2^−ΔΔCT method was used to calculate the relative levels of gene expression using Da An Gene DA7600 QPCR software v3.00 (Da An Gene). The GAPDH (human) expression was used as the internal control. A standard melting-curve cycle was used to confirm the quality of amplification. The reactions were performed in triplicate for each sample. The gene-specific primers were designed with the Primer5 BLAST software by GenScript Co., Ltd. (Nanjing, China): • 1 GAPDH (human): primer (122 bp), • Sense primer: 5′ […] 3’ • Antisense primer: 5′ […] 3′ • 2 Apaf-1 (human): primer (134 bp), • Sense primer: 5′ […] 3′ • Antisense primer: 5′ […] 3′ • 3 Bax (human): primer (112 bp), • Sense primer: 5 ′TTGCTTCAGGGTTTCATCC 3′ • Antisense primer: 5′ […] 3′ • 4 Bcl-2 (human): primer (116 bp), • Sense primer: 5′ […] 3′ • Antisense primer: 5′ […] 3′ • 5 Bcl-xL (human): primer (124 bp), • Sense primer: 5′ […] 3′ • Antisense primer: 5′ […] 3′ • 6 Caspase-3 (human): primer (131 bp), • Sense primer: 5′ […] 3′ • Antisense primer: 5′ […] 3′ • 7 Caspase-8 (human): primer (122 bp), • Sense primer: 5′ […] 3′ • Antisense primer: 5′ […] 3′ • 8 Caspase-9 (human): primer (136 bp), • Sense primer: 5′ […] 3′ • Antisense primer: 5′ […] 3′ • 9 Cytochrome c (human): primer (127 bp), • Sense primer: 5′ […] 3′ • Antisense primer: 5′ […] 3′

Molecule	IC50 ([1]; Homo sapiens, MDA-MB-231, 72 h)	mRNA expression levels of Apaf-1, Bax, caspase-3, caspase-8, caspase-9, and cytochrome c [2]	mRNA expression levels of Bcl-2 and Bcl-xL [2]	melting point	IC50 ([1]; 72 h)
COc1cc2c(cc1O)CC[C@@H]1[C@@H]2CC[C@]2(C)[C@@H](OCCCCCCCCn3c(=O)ccn([C@@H]4O[C@H](CO)[C@@H](O)[C@H]4O)c3=O)CC[C@@H]12 [Compound 11, 17 β-[8-(1-β-D-Ribofuranosyluracil-3-yl)-Octyloxy]-2-Methoxy-Estra-1,3,5(10)-Triene-3-ol]	14 ± 1.08 µM	upregulated	downregulated	95 to 96 °C	–
17 β-[6-(Uracil-3-yl)-Hexyloxy]-2-Methoxy-Estra-1,3,5(10)-Triene-3-ol [Compound 12a]	–	upregulated	downregulated	–	13 ± 0.38 µM
